Results on nine compounds are retold here after patent US10780090B2, “Heteroaryl compounds useful as inhibitors of SUMO activating enzyme” (Millennium Pharmaceuticals, Inc., priority 2014, dated 2020).

For this test, the target named is recombinant human SAE enzyme (Homo sapiens (Human), UniProt Q9UBT2). The experiment in a line: SAE HTRF enzyme assay. It counts as biochemical. Particulars: for Percent Inhibition: SAE inhibition at compound concentration 0.111 μM; for IC50: SAE inhibition, class symbols, legend in nM. The method, boiled down: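 Enzyme reaction: 50 mM HEPES pH 7.5, 5 mM MgCl2, 250 μM GSH, 0.05% BSA, 0.5 μM ATP, 0.01 μM Ubc9-GST, 0.125 μM Sumo-Flag, 0.11 nM SAE; 105 min, 24° C. Stop/detect, 2 h, then HTRF. % inh or IC50.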
Sequence of recombinant human SAE enzyme (Q9UBT2 whole entry): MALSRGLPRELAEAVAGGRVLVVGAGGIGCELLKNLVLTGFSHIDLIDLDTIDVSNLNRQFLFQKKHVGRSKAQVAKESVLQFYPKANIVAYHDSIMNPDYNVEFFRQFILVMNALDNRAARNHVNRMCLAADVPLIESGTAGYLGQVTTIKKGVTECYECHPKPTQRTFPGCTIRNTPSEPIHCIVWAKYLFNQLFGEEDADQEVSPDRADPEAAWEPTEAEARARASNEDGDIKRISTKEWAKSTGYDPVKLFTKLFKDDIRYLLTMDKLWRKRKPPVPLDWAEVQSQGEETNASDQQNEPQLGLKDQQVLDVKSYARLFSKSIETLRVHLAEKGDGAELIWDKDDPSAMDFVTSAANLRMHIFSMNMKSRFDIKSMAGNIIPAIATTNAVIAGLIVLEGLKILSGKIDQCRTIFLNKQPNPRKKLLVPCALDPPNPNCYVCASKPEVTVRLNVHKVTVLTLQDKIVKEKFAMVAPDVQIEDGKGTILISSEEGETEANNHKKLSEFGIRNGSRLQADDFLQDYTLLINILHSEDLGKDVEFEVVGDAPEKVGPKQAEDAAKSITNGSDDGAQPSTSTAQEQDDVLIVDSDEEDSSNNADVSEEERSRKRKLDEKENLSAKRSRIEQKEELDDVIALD
Sequence of recombinant human SAE enzyme (Q9UBE0 whole entry partner): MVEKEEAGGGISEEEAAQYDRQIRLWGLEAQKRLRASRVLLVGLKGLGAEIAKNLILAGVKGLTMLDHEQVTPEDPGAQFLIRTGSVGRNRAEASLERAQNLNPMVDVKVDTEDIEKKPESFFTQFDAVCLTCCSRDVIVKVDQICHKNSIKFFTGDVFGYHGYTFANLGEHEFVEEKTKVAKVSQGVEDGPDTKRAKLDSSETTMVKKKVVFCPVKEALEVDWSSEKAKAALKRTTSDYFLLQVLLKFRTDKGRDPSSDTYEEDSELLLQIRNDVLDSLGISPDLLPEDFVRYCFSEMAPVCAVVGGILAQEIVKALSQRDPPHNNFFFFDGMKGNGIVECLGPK
On the technique in general: TR-FRET usually uses a lanthanide donor and a delayed reading to cut background.

With `CN1CCc2ccc(Cl)cc2[C@H]1c1csc(C(=O)c2cncnc2N[C@@H]2C[C@H](COS(N)(=O)=O)[C@@H](O)C2)c1` (mixture of isomers) [I-307, [(1R,2S,4R)-4-{[5-({4-[(1R)-7-chloro-2-methyl-1,2,3,4-tetrahydroisoquinolin-1-yl]-2-thienyl}carbonyl)pyrimidin-4-yl]amino}-2-hydroxycyclopentyl]methyl sulfamate and [(1R,2S,4R)-4-{[5-({4-[(1S)-7-chloro-2-methyl-1,2,3,4-tetrahydroisoquinolin-1-yl]-2-thienyl}carbonyl)pyrimidin-4-yl]amino}-2-hydroxycyclopentyl]methyl sulfamate], the “Percent Inhibition” value is reported as 95% and the IC50 (in general, the point on the concentration scale where inhibition reaches its midpoint) is less than 10 nM.
In the same order, the values of `Cc1cn2c(n1)[C@H](c1cc(C(=O)c3cncnc3N[C@@H]3C[C@H](COS(N)(=O)=O)[C@@H](O)C3)sc1C)OCC2` (mixture of isomers) [I-309, [(1R,2S,4R)-2-hydroxy-4-{[5-({5-methyl-4-[(8S)-2-methyl-5,6-dihydro-8H-imidazo[2,1-c][1,4]oxazin-8-yl]-2-thienyl}carbonyl)pyrimidin-4-yl]amino}cyclopentyl]methyl sulfamate and [(1R,2S,4R)-2-hydroxy-4-{[5-({5-methyl-4-[(8R)-2-methyl-5,6-dihydro-8H-imidazo[2,1-c][1,4]oxazin-8-yl]-2-thienyl}carbonyl)pyrimidin-4-yl]amino}cyclopentyl]methyl sulfamate] are 98% and less than 10 nM.
Take `Cc1sc(C(=O)c2cncnc2N[C@@H]2C[C@H](COS(N)(=O)=O)[C@@H](O)C2)cc1[C@@H]1OCCc2ccc(C#N)cc21.Cc1sc(C(=O)c2cncnc2N[C@@H]2C[C@H](COS(N)(=O)=O)[C@@H](O)C2)cc1[C@H]1OCCc2ccc(C#N)cc21` (mixture of isomers) [I-313, [(1R,2S,4R)-4-{[5-({4-[(1R)-7-cyano-3,4-dihydro-1H-isochromen-1-yl]-5-methyl-2-thienyl}carbonyl)pyrimidin-4-yl]amino}-2-hydroxycyclopentyl]methyl sulfamate and [(1R,2S,4R)-4-{[5-({4-[(1S)-7-cyano-3,4-dihydro-1H-isochromen-1-yl]-5-methyl-2-thienyl}carbonyl)pyrimidin-4-yl]amino}-2-hydroxycyclopentyl]methyl sulfamate]: the “Percent Inhibition” value was found to be 94% and the IC50 is less than 10 nM.
For `NS(=O)(=O)OC[C@H]1C[C@@H](Nc2ncncc2C(=O)c2cc([C@@H]3OCCCc4ccc(Cl)cc43)cs2)C[C@@H]1O` (mixture of isomers) [I-314, [(1R,2S,4R)-4-{[5-({4-[(1R)-8-chloro-1,3,4,5-tetrahydro-2-benzoxepin-1-yl]-2-thienyl}carbonyl)pyrimidin-4-yl]amino}-2-hydroxycyclopentyl]methyl sulfamate and [(1R,2S,4R)-4-{[5-({4-[(1S)-8-chloro-1,3,4,5-tetrahydro-2-benzoxepin-1-yl]-2-thienyl}carbonyl)pyrimidin-4-yl]amino}-2-hydroxycyclopentyl]methyl sulfamate], the “Percent Inhibition” value stood at 95% and the IC50 was less than 10 nM.
In the same order, the values of `Cc1sc(C(=O)c2cncnc2N[C@@H]2C[C@H](COS(N)(=O)=O)[C@@H](O)C2)cc1[C@@H]1OCCc2sc(C(F)(F)F)nc21` (mixture of isomers) [I-315, [(1R,2S,4R)-2-hydroxy-4-{[5-({5-methyl-4-[(4S)-2-(trifluoromethyl)-6,7-dihydro-4H-pyrano[3,4-d][1,3]thiazol-4-yl]-2-thienyl}carbonyl)pyrimidin-4-yl]amino}cyclopentyl]methyl sulfamate and [(1R,2S,4R)-2-hydroxy-4-{[5-({5-methyl-4-[(4R)-2-(trifluoromethyl)-6,7-dihydro-4H-pyrano[3,4-d][1,3]thiazol-4-yl]-2-thienyl}carbonyl)pyrimidin-4-yl]amino}cyclopentyl]methyl sulfamate] are 97% and less than 10 nM.
On to `Cc1sc(C(=O)c2cncnc2N[C@@H]2C[C@H](COS(N)(=O)=O)[C@@H](O)C2)cc1[C@@H]1OCCc2cnc(Cl)cc21` (mixture of isomers) [I-316, [(1R,2S,4R)-4-{[5-({4-[(1R)-7-chloro-3,4-dihydro-1H-pyrano[4,3-c]pyridin-1-yl]-5-methyl-2-thienyl}carbonyl)pyrimidin-4-yl]amino}-2-hydroxycyclopentyl]methyl sulfamate and [(1R,2S,4R)-4-{[5-({4-[(1S)-7-chloro-3,4-dihydro-1H-pyrano[4,3-c]pyridin-1-yl]-5-methyl-2-thienyl}carbonyl)pyrimidin-4-yl]amino}-2-hydroxycyclopentyl]methyl sulfamate], for which the “Percent Inhibition” value came out at 94% and the IC50 is less than 10 nM.
As for `C[C@@]1(c2csc(C(=O)c3cncnc3N[C@@H]3C[C@H](COS(N)(=O)=O)[C@@H](O)C3)c2)OCCc2ccc(Cl)cc21` (mixture of isomers) [I-317, [(1R,2S,4R)-4-{[5-({4-[(1R)-7-chloro-1-methyl-3,4-dihydro-1H-isochromen-1-yl]-2-thienyl}carbonyl)pyrimidin-4-yl]amino}-2-hydroxycyclopentyl]methyl sulfamate and [(1R,2S,4R)-4-{[5-({4-[(1S)-7-chloro-1-methyl-3,4-dihydro-1H-isochromen-1-yl]-2-thienyl}carbonyl)pyrimidin-4-yl]amino}-2-hydroxycyclopentyl]methyl sulfamate], the “Percent Inhibition” value stood at 97% and the IC50 was less than 10 nM.
In the same order, the values of `C[C@@]1(c2csc(C(=O)c3cncnc3N[C@@H]3C[C@H](COS(N)(=O)=O)[C@@H](O)C3)c2)NCCc2ccccc21.C[C@]1(c2csc(C(=O)c3cncnc3N[C@@H]3C[C@H](COS(N)(=O)=O)[C@@H](O)C3)c2)NCCc2ccccc21` (mixture of isomers) [I-318, [(1R,2S,4R)-2-hydroxy-4-{[5-({4-[(1R)-1-methyl-1,2,3,4-tetrahydroisoquinolin-1-yl]-2-thienyl}carbonyl)pyrimidin-4-yl]amino}cyclopentyl]methyl sulfamate and [(1R,2S,4R)-2-hydroxy-4-{[5-({4-[(1S)-1-methyl-1,2,3,4-tetrahydroisoquinolin-1-yl]-2-thienyl}carbonyl)pyrimidin-4-yl]amino}cyclopentyl]methyl sulfamate] are 95% and less than 10 nM.
On the same counts, the results for `NS(=O)(=O)OC[C@H]1C[C@@H](Nc2ncncc2C(=O)c2cc([C@@H]3NCCCc4ccccc43)c(Cl)s2)C[C@@H]1O` (mixture of isomers) [I-319, [(1R,2S,4R)-4-{[5-({5-chloro-4-[(1R)-2,3,4,5-tetrahydro-1H-2-benzazepin-1-yl]-2-thienyl}carbonyl)pyrimidin-4-yl]amino}-2-hydroxycyclopentyl]methyl sulfamate and [(1R,2S,4R)-4-{[5-({5-chloro-4-[(1S)-2,3,4,5-tetrahydro-1H-2-benzazepin-1-yl]-2-thienyl}carbonyl)pyrimidin-4-yl]amino}-2-hydroxycyclopentyl]methyl sulfamate] are 94% and less than 10 nM.
